Key:
Test in all cases: relative viability (nuclei count vs DMSO), 5 days (fraction); higher = more cells survive
SGI-1776 + Tozasertib = compound: CN1CCC(CNc2ccc3ncc(-c4cccc(OC(F)(F)F)c4)n3n2)CC1 [SGI-1776] + Cc1cc(Nc2cc(N3CCN(C)CC3)nc(Sc3ccc(NC(=O)C4CC4)cc3)n2)n[nH]1 [Tozasertib] (partner 0.1 µM)
How it was run: (§1)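 One day after seeding in 1536-well plates, lung cancer cell lines were dosed by pin tool. Dosing was either single-drug or a fixed anchor-drug dose plus five library-drug doses (not always all listed) in √10 steps. After 5 days, nuclei were stained in one fix-and-stain step and counted on 4× images, and relative viability is the nuclei count of treated wells over that of vehicle wells, given as the median of duplicate plates.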

Entinostat + AZD7762 = compound: Nc1ccccc1NC(=O)c1ccc(CNC(=O)OCc2cccnc2)cc1 [Entinostat] + NC(=O)Nc1cc(-c2cccc(F)c2)sc1C(=O)N[C@H]1CCCNC1 [AZD7762] (partner 0.2 µM)
How it was run: as §1

[1] = compound: C1COCCN1C2=NC(=NC3=C2OC4=C3C=CC=N4)C5=CC(=CC=C5)NC(=O)C6=CN=C(C=C6)N + CC(=O)c1c(C)c2cnc(Nc3ccc(N4CCNCC4)cn3)nc2n(C2CCCC2)c1=O [Palbociclib] (partner 0.5 µM)
How it was run: as §1

Entinostat + Navitoclax = compound: Nc1ccccc1NC(=O)c1ccc(CNC(=O)OCc2cccnc2)cc1 [Entinostat] + CC1(C)CCC(c2ccc(Cl)cc2)=C(CN2CCN(c3ccc(C(=O)NS(=O)(=O)c4ccc(N[C@H](CCN5CCOCC5)CSc5ccccc5)c(S(=O)(=O)C(F)(F)F)c4)cc3)CC2)C1 [Navitoclax] (partner 0.5 µM)
How it was run: as §1

Cell Line | relative viability (SGI-1776 + Tozasertib; first compound 0.08 µM) | relative viability (SGI-1776 + Tozasertib; first compound 0.8 µM) | relative viability (SGI-1776 + Tozasertib; first compound 2.53 µM) | relative viability (SGI-1776 + Tozasertib; first compound 8 µM) | relative viability (Entinostat + AZD7762; first compound 0.02 µM) | relative viability (Entinostat + AZD7762; first compound 0.06325 µM) | relative viability (Entinostat + AZD7762; first compound 0.2 µM) | relative viability (Entinostat + AZD7762; first compound 0.6325 µM) | relative viability (Entinostat + AZD7762; first compound 2 µM) | relative viability ([1]; first compound 0.02 µM) | relative viability ([1]; first compound 0.06325 µM) | relative viability ([1]; first compound 0.2 µM) | relative viability ([1]; first compound 0.6325 µM) | relative viability ([1]; first compound 2 µM) | relative viability (Entinostat + Navitoclax; first compound 0.02 µM) | relative viability (Entinostat + Navitoclax; first compound 0.06325 µM) | relative viability (Entinostat + Navitoclax; first compound 0.2 µM) | relative viability (Entinostat + Navitoclax; first compound 0.6325 µM) | relative viability (Entinostat + Navitoclax; first compound 2 µM)
NCI-H358 | 0.0986 | 0.0957 | 0.102 | 0.0836 | 0.55 | 0.69 | 0.6 | 0.408 | 0.192 | 0.119 | 0.14 | 0.137 | 0.145 | 0.108 |  |  |  |  | 
NCI-H520 | 0.436 | 0.442 | 0.427 | 0.385 |  |  |  |  |  | 0.206 | 0.236 | 0.226 | 0.207 | 0.189 | 1.02 | 1.02 | 1.21 | 0.916 | 0.456
NCI-H522 | 0.654 | 0.557 | 0.502 | 0.523 | 0.779 | 0.846 | 0.85 | 1.07 | 0.796 | 0.798 | 0.984 | 0.884 | 0.743 | 0.838 |  |  |  |  | 
NCI-H596 | 1.07 | 1.04 | 0.792 | 0.577 | 1.19 | 1.11 | 1.14 | 0.817 | 0.829 |  |  |  |  |  | 0.923 | 0.962 | 0.861 | 0.8 | 0.581
NCI-H650 | 0.823 | 0.688 | 0.373 | 0.185 | 1.12 | 0.95 | 1.08 | 0.823 | 0.325 | 0.308 | 0.325 | 0.35 | 0.345 | 0.287 |  |  |  |  | 
NCI-H661 | 0.347 | 0.378 | 0.336 | 0.379 |  |  |  |  |  | 0.396 | 0.402 | 0.387 | 0.375 | 0.374 |  |  |  |  | 
NCI-H1299 |  |  |  |  |  |  |  |  |  |  |  |  |  |  | 1.05 | 1.01 | 1.05 | 0.936 | 0.763
NCI-H1623 | 0.436 | 0.425 | 0.39 | 0.45 |  |  |  |  |  |  |  |  |  |  |  |  |  |  | 
NCI-H1648 | 0.58 | 0.503 | 0.451 | 0.284 | 0.789 | 0.715 | 0.725 | 0.566 | 0.485 | 0.252 | 0.252 | 0.255 | 0.212 | 0.222 |  |  |  |  | 
NCI-H1650 | 0.374 | 0.287 | 0.214 | 0.226 |  |  |  |  |  | 0.336 | 0.321 | 0.274 | 0.39 | 0.287 | 1.2 | 1.28 | 1.1 | 0.673 | 0.673
NCI-H1703 |  |  |  |  | 0.109 | 0.153 | 0.129 | 0.116 | 0.106 |  |  |  |  |  | 1.22 | 1.21 | 1.37 | 1.05 | 0.575
NCI-H1792 |  |  |  |  | 0.731 | 0.747 | 0.465 | 0.236 | 0.153 | 0.661 | 0.74 | 0.605 | 0.463 | 0.384 | 0.729 | 0.674 | 0.576 | 0.535 | 0.222
NCI-H2009 | 0.646 | 0.543 | 0.449 | 0.387 |  |  |  |  |  | 0.195 | 0.224 | 0.144 | 0.223 | 0.202 | 1.21 | 1.19 | 1.13 | 0.816 | 0.52
NCI-H2023 | 0.325 | 0.224 | 0.165 | 0.148 |  |  |  |  |  | 0.378 | 0.384 | 0.316 | 0.256 | 0.172 | 0.916 | 0.692 | 0.496 | 0.163 | 0.138
NCI-H2228 | 0.253 | 0.145 | 0.117 | 0.148 |  |  |  |  |  | 0.934 | 0.817 | 0.407 | 0.64 | 0.621 | 1.03 | 0.758 | 0.52 | 0.365 | 0.349
NCI-H2342 | 0.668 | 0.456 | 0.504 | 0.357 | 0.514 | 0.569 | 0.507 | 0.428 | 0.398 | 0.525 | 0.522 | 0.505 | 0.512 | 0.515 |  |  |  |  | 
SK-LU-1 | 0.397 | 0.265 | 0.212 | 0.207 |  |  |  |  |  | 0.382 | 0.382 | 0.371 | 0.367 | 0.359 | 0.633 | 0.76 | 1.1 | 0.37 | 0.368
SK-MES-1 | 0.964 | 0.35 | 0.154 | 0.133 |  |  |  |  |  | 0.314 | 0.329 | 0.294 | 0.276 | 0.312 | 1.2 | 1.21 | 1.24 | 1.17 | 0.788
SW 900 | 0.693 | 0.608 | 0.467 | 0.222 | 0.723 | 0.699 | 0.726 | 0.488 | 0.268 | 0.52 | 0.555 | 0.525 | 0.548 | 0.345 |  |  |  |  | 
SW 1573 | 0.174 | 0.16 | 0.174 | 0.17 |  |  |  |  |  | 0.397 | 0.381 | 0.37 | 0.429 | 0.261 | 0.933 | 1.35 | 1.07 | 0.996 | 0.628
